Data taken from patent publication EP4000618A1, “COMBINATION OF AT LEAST ONE INHIBITOR OF THE XC TRANSPORTER WITH AT LEAST ONE INHIBITOR OF MEMBRANE-BOUND CATALASE FOR INHIBITING AND / OR INACTIVATING TUMOR CELLS” (Motz, Manfred, priority 2020, dated 2022).
Entries after “also recorded” stand apart in the source; their conditions may differ. Structures can show the parent of a compound that is named as a salt.

Tested on: humanen Magenkarzinomzellen (MKN-45)
Assay: Apoptosis induction in MKN-45 tumour cells after catalase inhibition; percentage of cells with apoptosis features counted by phase-contrast microscopy
Type: cell-based, human
Settings: for Effect on the consequence of the 3-AT pretreatment (no lag phase, independence from aquaporins): inhibitor present during 1 h pretreatment with 3-AT (Figur 3B)
Source text: Erfindungsgemäß wurden verschiedene Experimente mit humanen Magenkarzinomzellen (MKN-45) durchgeführt. Die experimentellen Einzelheiten der Versuche sind in der Literaturstelle Heinzelmann und Bauer, Biol. Chem. (2010) 391, S. 675-693 detailliert beschrieben. Auf die experimentelle Ausgestaltung wird hiermit ausdrücklich verwiesen.
In der Literaturstelle Heinzelmann und Bauer sind die Herkunft der jeweiligen Zellen, deren Anzuchtbedingungen, die Apoptoseinduktion und deren Messung beschrieben. Die membranständige Katalase wurde mit 3-Aminotriazol (3-AT) gehemmt. Spezifische Inhibitoren, die die Differenzierung zwischen dem reaktiven NO/Peroxynitritweg und dem HOCI-Weg erlauben, sind weiterhin in der Literaturstelle Heinzelmann und Bauer (a.a.o.) offenbart. Bei den einzelnen Auswertungen wurde die Apoptoseinduktion über die Quantifizierung des Prozentsatzes derjenigen Zellen bestimmt, die die Apoptosemerkmale Kernkondensation, Kernfragmentation und/oder Membrane-Blebbing aufwiesen. Die Quantifizierung erfolgte jeweils mit Hilfe eines Phasenkontrast-Umkehrmikroskops.

[1] = inhibitor added to 3-AT, whole 3-AT concentration range (Figur 1A, 1C)
[2] = inhibitor added to 3-AT, higher 3-AT concentration range (Figur 1A, 1B)

NCCc1ccc(S(=O)(=O)F)cc1 [AEBSF, 4-(2-Aminoethyl)benzenesulfonyl fluoride]
Hemmung der Apoptoseinduktion [1]: gehemmt; also recorded: vollständigen Hemmung der Apoptose | Effect on the consequence of the 3-AT pretreatment (no lag phase, independence from aquaporins): führt die Vorbehandlung nicht zu der unter A gezeigten Konsequenz

COc1cccc(C=NCCN=Cc2cccc(OC)c2[O-])c1[O-].[Cl-].[Mn+3] [EUK-134]
Hemmung der Apoptoseinduktion [2]: nur in diesem Bereich zur Hemmung; also recorded: hemmt nur die durch höhere Konzentrationen an 3-AT induzierte Apoptose | Effect on the consequence of the 3-AT pretreatment (no lag phase, independence from aquaporins): führt die Vorbehandlung nicht zu der unter A gezeigten Konsequenz

Cl.O=S(=O)([O-])c1ccc(-c2c3nc(c(-c4ccc(S(=O)(=O)O)cc4)c4ccc([nH]4)c(-c4ccc(S(=O)(=O)O)cc4)c4nc(c(-c5ccc(S(=O)(=O)O)cc5)c5ccc2[nH]5)C=C4)C=C3)cc1.[Fe] [FeTPPS, 5-, 10-, 15-, 20-Tetrakis(4-sulfonatophenyl)porphyrinato iron(III) chloride]
Hemmung der Apoptoseinduktion (cells not pretreated, range 3-6 nM 3-AT (Figur 6A)): geringfügigen Anteil des NO/Peroxynitritwegs | Hemmung der Apoptoseinduktion (inhibitor added to 3-AT, low 3-AT concentration range (Figur 1B)): zur Hemmung; also recorded: Hemmung der Apoptose im niedrigeren 3-AT Konzentrationsbereich

COC(=O)[C@@H](N)CCCNC(=N)N[N+](=O)[O-] [L-NAME, N-omega-nitro-L-arginine methylester hydrochloride]
Hemmung der Apoptoseinduktion (inhibitor added to 3-AT, low 3-AT concentration range (Figur 1B), hydrochloride): zur Hemmung; also recorded: Hemmung der Apoptose im niedrigeren 3-AT Konzentrationsbereich

OC[C@@H](O)[C@@H](O)[C@H](O)[C@H](O)CO [Mannitol]
Hemmung der Apoptoseinduktion [1]: gehemmt; also recorded: Hemmung der Apoptoseinduktion

[Ag+] [Silberionen]
Hemmung der Apoptoseinduktion (1 h preincubation with 100 mM 3-AT, wash, 3-AT again with Silberionen (Figur 3A)): nicht mehr durch Silberionen zu hemmen | Hemmung der Apoptoseinduktion (1 h preincubation without 3-AT, wash, then 3-AT with Silberionen (Figur 3A)): daher durch Silberionen zu hemmen | Hemmung der Apoptoseinduktion (Silberionen 5 µM added before 3-AT 100 mM (Figur 2A)): blockiert die Apoptoseinduktion fast vollständig; also recorded: nur dann vollständig wirkt | Hemmung der Apoptoseinduktion (Silberionen 5 µM added later, after 3-AT 100 mM (Figur 2A)): wirken schwächer oder gar nicht | Hemmung der Apoptoseinduktion (Silberionen 5 µM added to 3-AT concentration series (Figur 1D, 4A)): hemmen die Apoptose vollständig; also recorded: durch Silberionen gehemmt; also recorded: blockieren die Apoptoseinduktion vollständig

O=C(O)c1cc(/N=N/c2ccc(S(=O)(=O)Nc3ccccn3)cc2)ccc1O [Sulfasalazin]
Abhängigkeit der Apoptoseinduktion von der Aquaporinwirkung (Hemmbarkeit durch Silberionen) (14 h pretreatment with rising concentrations of Sulfasalazin, then 3-AT (Figur 4B-D)): ersetzt graduell die Wirkung der Aquaporine; also recorded: in steigendem Umfang von der Aktivität der Aquaporine unabhängig | Synergieeffekt mit 3-AT (Sulfasalazin and 3-AT given at the same time (Figur 5B)): bleibt dieser Synergieeffekt aus; also recorded: nicht ausreichend für die Induktion eines Synergieeffekts | Absenkung der 3-AT-Konzentration bei gleichbleibendem Effekt (after Sulfasalazin pretreatment (Figur 4)): ca. zehnfacher Absenkung | Synergieeffekt mit 3-AT (pretreatment of the cells with Sulfasalazin, then 3-AT (Figur 5A, 4A vs 4D)): konzentrationsabhängig zu einem Synergieeffekt; also recorded: Synergieeffekt zwischen 3-AT- und Sulfasalazinwirkung | Abhängigkeit von der Aquaporinwirkung (pretreatment with 100 µM Sulfasalazin, then 3-AT (Figur 4D)): vollständig aufgehoben | Signalweg der Apoptoseinduktion beim Synergieeffekt (pretreatment with 100 µM Sulfasalazin, then 3-AT, profile with FeTPPS and Taurin (Figur 6B)): vollständig durch den NO/Peroxynitritweg bedingt; also recorded: lediglich zu einer Verstärkung des NO/Peroxynitritwegs geführt

NCCS(=O)(=O)O [Taurin]
Hemmung der Apoptoseinduktion (Taurin added two hours after 3-AT (Figur 2B)): sofortigen Abbruch der Apoptoseinduktion; also recorded: erfolgreichen und sofortigen Hemmung der Apoptoseinduktion | Steigerung der Apoptose (cells not pretreated, range 0.7 und 6 mM 3-AT (Figur 6A)): Steigerung der Apoptose | Hemmung der Apoptoseinduktion [2]: im höheren Konzentrationsbereich; also recorded: spezifisch Apoptose hemmen, die durch höhere Konzentrationen an 3-AT induziert wurde
